Reference: patent US20030021782A1, “Chlamydia infection” (priority 2001, published 2003)

Test system: C. pneumoniae strain AR-39 in HMEC-1 cells
Test: Assay for growth (infectivity) enhancing activity: C. pneumoniae inclusion counts in HMEC-1 cell culture
Format: cell-based
Conditions: for enhancement of growth of C. pneumoniae strain AR-39 in HMEC-1 cells: added to culture medium at 1, 5 and 10 ng/mL, 3 days incubation
Experimental: To assay for growth enhancing activity, conditioned medium, fractions of conditioned medium, insulin-like growth factor-1 (IGF-1) and IGF-2 were tested in HMEC-1 cell culture for enhanced susceptibility to C. pneumoniae. HMEC-1 cells were trypsinized from stock cultures and plated to achieve a cell monolayer in 24 h in 24-well culture plates. A 12 mm diameter glass coverslip was placed in each well for growing cells for ease of staining for microscopic observation and counting inclusions for assaying titers. For inoculation of cell culture, the culture fluid was removed and the cell monolayer washed three times with Hank's balanced salt solution. Two-tenth mL of inoculum were added per well and the plate was centrifuged for 1 h at 700 to 800× g at 25° C. After centrifugation, the inocula were removed, 1 mL of specified culture medium was added, and the plates were incubated in a CO2 incubator at 35° C. for 3 days. After incubation, coverslips were removed, fixed with methanol and stained with a Chlamydia genus-specific monoclonal antibody conjugated with fluorescein isothiocyanate. Inclusions were counted in 30 random fields at ×400 magnification. The infectivity titers were expressed as inclusion forming units (ifus) per milliliter, which had been adjusted for dilution factor and inoculum size (Furness et al., J. Gen Micro. 23:213-9, 1960). Triplicate coverslips were counted in each experiment. Experiments were repeated 2 or 3 times.
Characterization of Chlamydial growth enhancing factors was carried out as follows. Conditioned medium of a one day old culture of U937 cells in RPMI supplemented with 2% fetal calf serum was used. Conditioned medium was heated at 70° C. for 2 h and tested for growth enhancing activity against AR-39 in HMEC-1 cells. An equal volume of conditioned medium was mixed with fresh endothelial basal medium containing 2% fetal calf serum for culturing infected HMEC-1 cells.
For determining molecular size, one day old conditioned medium of U937 cells cultured in serum-free macrophage culture medium was fractionated into molecular weight ranges of larger than 30,000, 30,000 to 10,000, 10,000 to 5,000 and smaller than 5,000 using three different pore size filters, Biomax-30, Biomax-10 and Biomax-5 ultrafilters (Millipore, Bedford, Mass.) with the molecular weight cut-off of 30,000; 10,000; and 5,000, respectively. For size fractionation, a starting volume of 200 mL of conditioned medium was used. Each fraction was concentrated to 2 mL (a 100× concentration). The remaining filtrate which had been passed through the 5,000 molecular weight pore size filter also was saved for testing. That fraction and the starting conditioned medium were tested without concentration. […]

Substance	enhancement of growth of C. pneumoniae strain AR-39 in HMEC-1 cells	enhancing activity (increase) (0.5 ng/mL, p<0.05, N=3) [%]	enhancing activity (increase) (5 ng/mL, p<0.001) [%]
insulin-like growth factor-1 [IGF-1]	not	–	–
insulin-like growth factor-2 [IGF-2]	enhanced the growth	35	256
